Drawing on patent US20250268903A1, “RXFP1 AGONISTS” (BRISTOL-MYERS SQUIBB COMPANY, priority 2021, published 2025), this text covers EC50 for 19 compounds.

The target of this experiment is T1, human RXFP1 (Homo sapiens, UniProt Q9HBX9).
T1 construct: expressed in transfected cells
T1 sequence (Q9HBX9 1-757): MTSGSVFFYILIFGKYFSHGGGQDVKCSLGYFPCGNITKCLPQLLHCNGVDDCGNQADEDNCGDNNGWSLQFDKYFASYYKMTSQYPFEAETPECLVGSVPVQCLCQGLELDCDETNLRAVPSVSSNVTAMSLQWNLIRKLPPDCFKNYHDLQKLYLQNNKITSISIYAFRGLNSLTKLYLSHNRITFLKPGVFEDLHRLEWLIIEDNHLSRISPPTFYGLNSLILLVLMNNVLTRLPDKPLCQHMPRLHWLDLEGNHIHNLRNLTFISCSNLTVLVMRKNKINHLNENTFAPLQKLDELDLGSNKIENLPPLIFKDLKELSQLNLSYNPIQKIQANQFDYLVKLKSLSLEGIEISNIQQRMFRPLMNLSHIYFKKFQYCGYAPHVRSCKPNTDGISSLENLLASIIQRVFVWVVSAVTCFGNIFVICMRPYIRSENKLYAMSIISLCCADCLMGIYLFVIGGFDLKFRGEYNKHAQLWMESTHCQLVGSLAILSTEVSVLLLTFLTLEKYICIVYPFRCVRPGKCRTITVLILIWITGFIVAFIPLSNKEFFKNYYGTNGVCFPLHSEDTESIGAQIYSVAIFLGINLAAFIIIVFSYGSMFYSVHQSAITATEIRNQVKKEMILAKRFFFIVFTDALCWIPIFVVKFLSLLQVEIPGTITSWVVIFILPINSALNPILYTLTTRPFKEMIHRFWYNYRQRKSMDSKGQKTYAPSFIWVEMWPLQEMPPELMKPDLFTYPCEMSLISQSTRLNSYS
As to the kind of experiment: hRXFP1 HEK293 cAMP assay (HTRF). In kind it is cell-based. Conditions: HEK293 cells stably expressing human RXFP1, 30 min at room temperature. How it is done:
RXFP1 Cyclic Adenosine Monophosphate (cAMP) Assays. […] Cells were dissociated and suspended in assay buffer. The assay buffer was HBSS buffer (with calcium and magnesium) containing 20 mM HEPES, 0.05% BSA, and 0.5 mM IBMX. Cells (3000 cells per well, except 1500 cell per well for HEK293 cells stably expressing human RXFP1) were added to 384-well Proxiplates (Perkin-Elmer). Cells were immediately treated with test compounds in DMSO (2% final) at final concentrations in the range of 0.010 nM to 50 μM. Cells were incubated for 30 min at room temperature. The level of intracellular cAMP was determined using the HTRF HiRange cAMP assay reagent kit (Cisbio) according to manufacturer's instructions. Solutions of cryptate conjugated anti-cAMP and d2 fluorophore-labelled cAMP were made in a supplied lysis buffer separately. Upon completion of the reaction, the cells were lysed with equal volume of the d2-cAMP solution and anti-cAMP solution. […] The potency and activity of a compound to […] cAMP production was then determined by fitting to a 4-parametric logistic equation from a plot of cAMP level versus compound concentrations.
For orientation: Changes in cAMP serve as a functional read-out for many G protein-coupled receptors.
Broadly, the EC50 is the concentration at which the effect is half-maximal. Read a high EC50 as lower potency in that assay. As to `COC(=O)C1CC(c2ccc(OC)c(C(=O)N[C@H]3[C@@H](C(=O)Nc4ccc(F)c(C(F)(F)F)c4)[C@H]4CC[C@@H]3/C4=C\C(F)(F)F)c2)C1` (stereo partly drawn) [Example 329, methyl 3-(3-{[(1R,2R,3S,4R,7Z)-3-{[4-fluoro-3-(trifluoromethyl)phenyl]carbamoyl}-7-(2,2,2-trifluoroethylidene)bicyclo[2.2.1]heptan-2-yl]carbamoyl}-4-methoxyphenyl) cyclobutane-1-carboxylate], the EC50 stood at 210 nM. With `COc1ccc(COC[C@@H]2C[C@@H]2CO)cc1C(=O)N[C@H]1[C@@H](C(=O)Nc2ccc(F)c(C(F)(F)F)c2)[C@H]2CC[C@@H]1/C2=C\C1CC1` [Example 293, (1R,2S,3R,4R,7Z)-7-(cyclopropyl-methylidene)-N-[4-fluoro-3-(trifluoromethyl)phonyl]-3-[5-({[(1R,2S)-2-(hydroxymethyl)cyclopropyl]methoxy}methyl)-2-methoxybenzamido] bicyclo[2.2.1]heptane-2-carboxamide] the figure was 67.1 nM; with `COc1ccc(CCCCCCO)cc1C(=O)N[C@@H]1C2CCC(/C2=C/C(F)(F)F)[C@@H]1C(=O)Nc1ccc(F)c(C(F)(F)F)c1` (stereo partly drawn) [Example 99, (2S,3R,7Z)-N-[4-fluoro-3-(trifluoromethyl)phe-nyl]-3-[5-(6-hydroxyhexyl)-2-methoxybenzamido]-7-(2,2,2-trifluoroethylidene)bi-cyclo[2.2.1]heptane-2-carboxamide], 268 nM.

`COc1ccc(S(=O)(=O)N2CCOCC2)cc1C(=O)NC1C2CCC(/C2=C/C(F)(F)F)[C@@H]1C(=O)Nc1ccc(F)c(C(F)(F)F)c1` (stereo partly drawn) [Example 199, (2S,3R,7Z)-N-[4-fluoro-3-(trifluoromethyl)phe-nyl]-3-[2-methoxy-5-(morpholine-4-sulfonyl)benzamido]-7-(2,2,2-triflurooethylidene)bi-cyclo[2.2.1]heptane-2-carboxamide] came in with an EC50 of 719 nM. With “2-(3-{[(2R,3S,7Z)- 3-{[4-fluoro-3- (trifluoromethyl)phe- nyl]carbamoyl}-7- (2,2,2- trifluoroethylidene)bi- cyclo[2.2.1]heptan- 2-yl]carbamoyl}-4- methoxyphenyl)ethyl N-phenylcarbamate [Example 56]” the figure was 447 nM; with `COc1ccc(CCCCCC#N)cc1C(=O)NC1C2CCC(/C2=C/C2CCC2)[C@@H]1C(=O)Nc1ccc(F)c(C(F)(F)F)c1` (stereo partly shown) [Example 190, (7Z)-3-[5-(5-cyanopentyl)-2-methoxybenzamido]-7-(cyclobutylmethyli-dene)-N-[4-fluoro-3-(trifluoromethyl)phe-nyl]bicyclo[2.2.1]hept-ane-2-carboxamide], 23 nM; with `COc1ccc(C(=O)NC(C)(C)CO)cc1C(=O)N[C@H]1[C@@H](C(=O)Nc2ccc(F)c(C(F)(F)F)c2)[C@H]2CC[C@@H]1/C2=C\C1CC1` [Example 239, N3-[(1R,2R,3S,4R,7Z)-7-(cyclopropyl-methylidene)-3-{[4-fluoro-3-(trifluoromethyl)phenyl]carbamoyl}bicyclo[2.2.1]heptan-2-yl]-N1-(1-hydroxy-2-methylpropan-2-yl)-4-methoxybenzene-1,3-dicarboxamide], 27.8 nM. With `COc1ccc(C2CCCC2)cc1C(=O)N[C@@H]1C2CCC(/C2=C/C(F)(F)F)[C@@H]1C(=O)Nc1ccc(F)c(C(F)(F)F)c1` (stereo partly drawn) [Example 47, (2S,3R,7Z)-3-(5-cyclopentyl-2-methoxybenzamido)-N-[4-fluoro-3-(trifluoroemthyl)phe-nyl]-7-(2,2,2-trifluoroethylidene) bicyclo[2.2.1]heptane-2-carboxamide] the figure was 926 nM; with `COc1ccc(C(=O)N2CC3CCC(C2)O3)cc1C(=O)N[C@H]1[C@@H](C(=O)Nc2ccc(F)c(C(F)(F)F)c2)[C@H]2CC[C@@H]1/C2=C\C1CC1` [Example 259, (1R,2S,3R,4R,7Z)-7-(cyclopropylmethylidene)-N-[4-fluoro-3-(trifluoromethyl)phenyl]-3-(2-methoxy-5-{8-oxa-3-azabicyclo[3.2.1]octane-3-carbonyl}benzamido) bicyclo[2.2.1] heptane-2-carboxamide], 367 nM; with `COc1ccc(C2CC3CC(CO)CC32)cc1C(=O)N[C@H]1[C@@H](C(=O)Nc2ccc(F)c(C(F)(F)F)c2)[C@H]2CC[C@@H]1/C2=C\C1CC1` (single isomer, unassigned) [Example 350], 17.7 nM. With `CCCC/C=C1\C2CCC1[C@H](C(=O)Nc1ccc(F)c(C(F)(F)F)c1)[C@@H]2NC(=O)c1cc(CCC(C)(C)O)ccc1OC` (stereo partly drawn) [Example 89, (2S,3R,7Z)-N-[4-fluoro-3-(trifluoromethyl)phe-nyl]-3-[5-(3-hydroxy-3-methylbutyl)-2-methoxybenzamido]-7-pentylidenebicyclo [2.2.1]heptane-2-carboxamide] the figure was 45 nM; with `COc1ccc(CCC(=O)NCCO)cc1C(=O)N[C@@H]1C2CCC(/C2=C/C(F)(F)F)[C@@H]1C(=O)Nc1ccc(F)c(C(F)(F)F)c1` (stereo partly drawn) [Example 137, (2S,3R,7Z)-N-[4-fluoro-3-(trifluoromethyl)phe-nyl]-3-(5-{2-[(2-hydroxyethyl)carba-moyl]ethyl}-2-methoxybenzamido)-7-(2,2,2-trifluoroethylidene)bi-cyclo[2.2.1]heptane-2-carboxamide], 400 nM; with `COc1ccc(/C=C/C(=O)N2CC3CCC(C2)O3)cc1C(=O)N[C@H]1[C@@H](C(=O)Nc2ccc(F)c(C(F)(F)F)c2)[C@H]2CC[C@@H]1/C2=C\C1CC1` [Example 308, (1R,2S,3R,4R,7Z)-7-(cyclopropylmethylidene)-N-[4-fluoro-3-(trifluoromethyl)phenyl]-3-{2-methoxy-5-[(1E)-3-{8-oxa-3-azabicyclo[3.2.1]octan-3-yl}-3-oxoprop-1-en-1-yl]benzamido} bicyclo[2.2.1] heptane-2-carboxamide], 13.7 nM.

Compound `COc1ccc(COC2CCC(O)CC2)cc1C(=O)N[C@H]1[C@@H](C(=O)Nc2ccc(F)c(C(F)(F)F)c2)[C@H]2CC[C@@H]1/C2=C\C1CC1` (stereo partly drawn) [Example 289, (1R,2S,3R,4R,7Z)-7-(cyclopropyl-methylidene)-N-[4-fluoro-3-(trifluoromethyl)phenyl]-3-(5-{[(4-hydroxycyclohexyl)oxy]methyl}-2-methoxybenzamido) bicyclo[2.2.1]heptane-2-carboxamide] returned an EC50 of 14.5 nM. This EC50 and that of the compound before are within 1.5-fold of each other. Take `COC(=O)C1CC(c2ccc(OC)c(C(=O)N[C@H]3[C@@H](C(=O)Nc4ccc(F)c(C(F)(F)F)c4)[C@H]4CC[C@@H]3/C4=C\C3CC3)c2)C1` (single isomer, unassigned) [Example 328]: the EC50 amounted to 21.3 nM.

`COc1ccc(CCCN2CCOCC2)cc1C(=O)N[C@@H]1C2CCC(/C2=C/C(F)(F)F)[C@@H]1C(=O)Nc1ccc(F)c(C(F)(F)F)c1` (stereo partly drawn) [Example 121, (2S,3R,7Z)-N-[4-fluoro-3-(trifluoromethyl)phe-nyl]-3-{2-methoxy-5-[3-(morpholin-4-yl)propyl]benzamido}-7-(2,2,2-trifluoroethylidene)bi-cyclo[2.2.1]heptane-2-carboxamide] yielded an EC50 of 1070 nM. With `COc1ccc(C(=O)N2CC(C)(C)C2)cc1C(=O)N[C@H]1[C@@H](C(=O)Nc2ccc(F)c(C(F)(F)F)c2)[C@H]2CC[C@@H]1/C2=C\C1CC1` [Example 237] the figure was 41.3 nM; with “(1R,4R,7Z)-7-(2- cyclobutylethylidene)- N-[4-fluoro-3- (trifluoromethyl) phenyl]-3-[5-(3- hydroxypropyl)-2- methoxybenzamido] bicyclo[2.2.1]heptane- 2-carboxamide [Example 261]”, 147 nM. Take `COc1ccc(S(=O)(=O)N2CC3COCC3C2)cc1C(=O)NC1C2CCC(/C2=C/C(F)(F)F)[C@@H]1C(=O)Nc1ccc(F)c(C(F)(F)F)c1` (stereo partly drawn) [Example 205, (2S,3R,7Z)-N-[4-fluoro-3-(trifluoromethyl)phe-nyl]-3-(5-{hexahydro-1H-furo[3,4-c]pyrrole-5-sulfonyl}-2-methoxybenzamido)-7-(2,2,2-trifluoroethylidene)bi-cyclo[2.2.1]heptane-2-carboxamide]: a half-maximal response (EC50) required 611 nM.
